The supplement of paper PMC10307832

Columns and labels:
Experiment in all cases: relative viability (nuclei count vs DMSO), 5 days (fraction); higher = more cells survive
BAM7 + Trametinib = compound: CCOC1=CC=CC=C1N=NC2=C(NN(C2=O)C3=NC(=CS3)C4=CC=CC=C4)C [BAM7] + CC(=O)Nc1cccc(-n2c(=O)n(C3CC3)c(=O)c3c(Nc4ccc(I)cc4F)n(C)c(=O)c(C)c32)c1 [Trametinib] (partner 0.02 µM)
Outline: (§1)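 The day after seeding in 1536-well plates, lung cancer cell lines were treated by pin tool with a single drug, or with a fixed anchor-drug dose together with five library-drug doses (not always all listed) in √10 steps. After 5 days, a combined fix-and-stain solution (final 0.05% Triton X-100, 1% formaldehyde, 1 ug/ml Hoechst) was added. Nuclei counted on 4× images gave relative viability as treated counts over vehicle counts, reported as the median of duplicate plates.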

[1] = compound: CCn1c(-c2nonc2N)nc2c(C#CC(C)(C)O)ncc(OC[C@H]3CCCNC3)c21
Outline: (§2)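 Vehicle-anchored 1536-well plates of lung cancer cell lines, held overnight at 37 °C, were pinned with five library-drug doses (not always all listed) spaced by √10. No medium change followed over the next 5 days, after which the cells were fixed, permeabilised and Hoechst-stained together and imaged at 4×. Nuclei were counted with MetaXpress, and viability is treated-well nuclei over vehicle-well nuclei, taken as a median across plates. Plates passed with control CV below 25% and at least one doubling.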

BAM7 = compound: CCOC1=CC=CC=C1N=NC2=C(NN(C2=O)C3=NC(=CS3)C4=CC=CC=C4)C [BAM7]
Outline: as §2

[2] = compound: CCn1c(-c2nonc2N)nc2c(C#CC(C)(C)O)ncc(OC[C@H]3CCCNC3)c21 + CC1(C)CCC(c2ccc(Cl)cc2)=C(CN2CCN(c3ccc(C(=O)NS(=O)(=O)c4ccc(N[C@H](CCN5CCOCC5)CSc5ccccc5)c(S(=O)(=O)C(F)(F)F)c4)cc3)CC2)C1 [Navitoclax] (partner 0.5 µM)
Outline: as §1

Cell Line | relative viability (BAM7 + Trametinib; first compound 0.5 µM) | relative viability (BAM7 + Trametinib; first compound 5 µM) | relative viability (BAM7 + Trametinib; first compound 15.81 µM) | relative viability (BAM7 + Trametinib; first compound 50 µM) | relative viability ([1]; 0.01 µM) | relative viability ([1]; 0.03162 µM) | relative viability ([1]; 0.1 µM) | relative viability ([1]; 0.3162 µM) | relative viability ([1]; 1 µM) | relative viability (BAM7; 0.5 µM) | relative viability (BAM7; 5 µM) | relative viability (BAM7; 15.81 µM) | relative viability (BAM7; 50 µM) | relative viability ([2]; first compound 0.01 µM) | relative viability ([2]; first compound 0.03162 µM) | relative viability ([2]; first compound 0.1 µM) | relative viability ([2]; first compound 0.3162 µM) | relative viability ([2]; first compound 1 µM)
NCI-H2342 | 0.933 | 0.818 | 0.745 | 0.82 | 0.957 | 0.881 | 0.99 | 0.91 | 0.964 | 0.851 | 0.994 | 0.89 | 0.708 | – | – | – | – | –
SK-MES-1 | 0.566 | 0.551 | 0.523 | 0.495 | 0.998 | 1.01 | 1.02 | 0.944 | 0.993 | 1.04 | 1.08 | 0.973 | 1.03 | 1.22 | 1.22 | 1.18 | 1.22 | 1.2
HCC-366 | 0.328 | 0.373 | 0.294 | 0.356 | 0.993 | 1.05 | 0.805 | 0.998 | 0.99 | 1.04 | 1.04 | 1.03 | 1.02 | 0.967 | 1.1 | 1.01 | 1.06 | 1.02
201T | 0.742 | 0.738 | 0.71 | 0.708 | 0.95 | 0.987 | 0.959 | 0.952 | 0.986 | 0.918 | 0.865 | 0.793 | 0.861 | 1.21 | 1.22 | 1.26 | 1.19 | 1.17
HCC-827 | 0.535 | 0.548 | 0.591 | 0.556 | 1.06 | 1.03 | 1 | 0.986 | 0.99 | 1.04 | 1.05 | 1.06 | 1.03 | 1.03 | 0.985 | 1.06 | 1.03 | 1.04
NCI-H647 | 0.457 | 0.599 | 0.494 | 0.445 | 0.982 | 0.995 | 0.952 | 0.918 | 0.981 | 1.02 | 1.07 | 0.894 | 1.07 | 1.16 | 0.96 | 1.14 | 1.08 | 1.14
NCI-H2023 | 0.525 | 0.437 | 0.398 | 0.49 | 0.929 | 0.949 | 0.909 | 0.767 | 0.834 | 0.917 | 0.823 | 0.793 | 1.02 | 1.02 | 0.98 | 0.972 | 0.932 | 1.01
NCI-H520 | 0.595 | 0.782 | 0.804 | 0.789 | 0.905 | 0.921 | 0.779 | 0.753 | 0.665 | 1 | 1.02 | 1.01 | 1.09 | 1.05 | 1.11 | 1.05 | 0.934 | 0.797
RERF-LC-KJ | 0.767 | 0.708 | 0.526 | 0.642 | 0.959 | 0.97 | 0.99 | 0.966 | 1.05 | 0.94 | 0.913 | 0.745 | 0.812 | 0.944 | 1.04 | 0.773 | 1.17 | 0.791
A-427 | 0.765 | 0.809 | 0.752 | 0.911 | 0.994 | 1.06 | 0.918 | 0.965 | 1.08 | 1.05 | 1.08 | 1 | 1.09 | 0.941 | 0.955 | 0.913 | 0.973 | 1.02
NCI-H441 | 0.522 | 0.518 | 0.498 | 0.496 | 0.927 | 1.05 | 1.04 | 0.948 | 0.99 | 1.16 | 1.06 | 1.1 | 1.44 | 0.48 | 0.626 | 0.591 | 0.65 | 0.556
NCI-H1703 | – | – | – | – | 0.828 | 0.973 | 0.839 | 0.788 | 0.612 | 1.04 | 0.989 | 0.808 | 1 | 1.12 | 0.959 | 0.857 | 1.04 | 0.505
NCI-H1792 | 0.46 | 0.462 | 0.401 | 0.362 | 0.887 | 0.636 | 0.939 | 0.908 | 0.932 | 1.02 | 1.06 | 1.07 | 0.873 | 0.722 | 0.501 | 0.619 | 0.62 | 0.604
Calu-6 | – | – | – | – | 0.995 | 1.02 | 1.02 | 0.982 | 1.03 | 1.07 | 1.06 | 0.989 | 0.995 | 0.75 | 0.797 | 0.827 | 0.86 | 0.983
SK-LU-1 | 0.575 | 0.525 | 0.527 | 0.499 | 1.06 | 1.09 | 0.88 | 0.953 | 0.966 | 1.04 | 1.24 | 0.962 | 1.13 | 0.89 | 0.936 | 0.99 | 0.921 | 0.761
PC-3 [JPC-3] | 0.592 | 0.722 | 0.637 | 0.617 | 1.02 | 1.02 | 1.05 | 0.996 | 1.08 | 0.967 | 1.02 | 0.974 | 0.917 | 0.806 | 0.788 | 0.859 | 0.837 | 0.809
EMC-BAC-2 | 0.941 | 0.944 | 0.941 | 1.02 | 0.919 | 0.725 | 0.933 | 0.937 | 1.04 | 1.03 | 1.08 | 1.22 | 1.02 | 1.17 | 1.18 | 1.15 | 1.07 | 1.13

Cell Line | relative viability (BAM7 + Trametinib; first compound 0.5 µM) | relative viability (BAM7 + Trametinib; first compound 5 µM) | relative viability (BAM7 + Trametinib; first compound 15.81 µM) | relative viability (BAM7 + Trametinib; first compound 50 µM) | relative viability ([1]; 0.01 µM) | relative viability ([1]; 0.03162 µM) | relative viability ([1]; 0.1 µM) | relative viability ([1]; 0.3162 µM) | relative viability ([1]; 1 µM) | relative viability (BAM7; 0.5 µM) | relative viability (BAM7; 5 µM) | relative viability (BAM7; 15.81 µM) | relative viability (BAM7; 50 µM) | relative viability ([2]; first compound 0.01 µM) | relative viability ([2]; first compound 0.03162 µM) | relative viability ([2]; first compound 0.1 µM) | relative viability ([2]; first compound 0.3162 µM) | relative viability ([2]; first compound 1 µM)
LK-2 | 0.737 | 0.945 | 0.811 | 0.841 | 0.889 | 1.06 | 0.815 | 0.913 | 0.872 | 1.03 | 1.13 | 1.04 | 1.1 | 0.787 | 0.927 | 0.77 | 0.872 | 0.889
NCI-H2126 | 0.516 | 0.499 | 0.519 | 0.476 | 0.98 | 0.908 | 0.995 | 0.996 | 1.02 | 0.944 | 0.879 | 0.867 | 0.898 | 0.908 | 0.848 | 0.847 | 0.927 | 0.88
NCI-H3122 | 0.24 | 0.232 | 0.283 | 0.198 | 1 | 0.973 | 1.06 | 0.991 | 1.01 | 1.02 | 1.09 | 1.01 | 1.01 | 1.05 | 1 | 1.06 | 1.01 | 1.04
NCI-H1299 | – | – | – | – | 0.984 | 1.05 | 1.01 | 1.01 | 1.04 | 1.01 | 1.06 | 1.01 | 1.01 | 1.04 | 1.06 | 1.02 | 1.03 | 1.08
LCLC-103H | 0.664 | 0.706 | 0.69 | 0.684 | 0.964 | 0.988 | 0.929 | 0.938 | 1.09 | 0.966 | 1.04 | 0.983 | 1.04 | – | – | – | – | –
ABC-1 | – | – | – | – | 0.934 | 0.869 | 0.864 | 0.768 | 0.696 | 0.919 | 1.05 | 0.855 | 1.14 | – | – | – | – | –
NCI-H650 | 1.02 | 0.98 | 1.04 | 1.28 | 0.788 | 0.854 | 0.854 | 0.998 | 0.832 | 0.944 | 1.1 | 0.955 | 1.22 | – | – | – | – | –
NCI-H1648 | 0.558 | 0.476 | 0.421 | 0.464 | 0.922 | 0.869 | 0.775 | 0.851 | 0.973 | 0.786 | 0.754 | 0.608 | 0.708 | – | – | – | – | –
NCI-H661 | 0.561 | 0.638 | 0.606 | 0.619 | 1.01 | 1.03 | 0.976 | 1.01 | 0.972 | 0.984 | 1.03 | 0.965 | 1.03 | – | – | – | – | –
NCI-H1563 | – | – | – | – | 1.01 | 0.984 | 0.96 | 0.901 | 0.89 | 0.967 | 1.04 | 0.995 | 1.02 | – | – | – | – | –
A549 | – | – | – | – | 0.934 | 0.995 | 0.996 | 0.896 | 0.951 | 1.01 | 1.07 | 0.948 | 1.03 | 1.16 | 1.35 | 1.28 | 1.08 | 1.06
NCI-H522 | 0.72 | 0.741 | 0.665 | 0.718 | 1.07 | 1.03 | 0.972 | 0.826 | 1.02 | 0.981 | 1.07 | 1.01 | 1.07 | – | – | – | – | –
NCI-H1623 | – | – | – | – | 1.07 | 1.02 | 0.963 | 0.967 | 1.09 | 1.06 | 0.974 | 0.768 | 0.896 | – | – | – | – | –
SW 900 | – | 0.72 | – | 0.888 | 0.796 | 0.73 | 0.76 | 0.822 | 0.892 | 0.781 | 0.826 | 0.708 | 1.03 | – | – | – | – | –
IA-LM | – | – | – | – | 1.01 | 1.05 | 1.01 | 0.852 | 0.853 | 0.988 | 0.979 | 0.85 | 1.15 | 0.76 | 0.66 | 0.929 | 0.576 | 0.313
NCI-H358 | – | 0.152 | 0.137 | 0.126 | 0.905 | 1.01 | 0.935 | 0.912 | 0.913 | 0.96 | 1.19 | 0.942 | 0.912 | – | – | – | – | –
EBC-1 | – | – | – | – | 0.986 | 0.963 | 0.973 | 0.883 | 0.757 | 1.05 | 1.04 | 0.952 | 1.06 | 0.393 | 0.433 | 0.358 | 0.235 | 0.188
